Non-standard residues stand in square brackets, D forms with d. Residues, ends and D or L forms follow the SMILES beside them. Nspe = C[C@H](NCC(=O)O)c1ccccc1; Nlys = NCCCCNCC(=O)O
Assays:
[1] = test system: MRC-5 (fetal lung fibroblast); experiment: MTS cell viability assay, MRC-5; type: cell-based; settings: 72 h
Description: (§1) MCF-7, MCF-7/TxT50 and OVCAR-3 (available in ATCC) were kindly provided by Professor Branimir Sikic's lab at Stanford University, and were cultured in McCoy's 5A media (GIBCO) with 10% FBS and antibiotics. Primary dermal fibroblasts were gifts from Lifeline Cell Technology and were cultured <6 passages according to the protocol Lifeline provides. All the cells were cultured in cell incubators (Thermo Scientific) at 37°C with 5% CO2.
(§2) This assay is a colorimetric method for determining the number of viable cells in proliferation. Aliquots of 100 µl media containing 1×10^4 cells were distributed into each well of a 96-well plate (BD Falcon). The following day, when cell density reaches about ∼40% confluency, the cell media were removed and replaced with serial dilutions of peptoid stocks in culturing media. For peptoid dilutions, peptoid stocks were initially diluted in media at 100 µM and then diluted by half in series using a multichannel pipette, and maintained in 100 µl media for each concentration with triple repeats. After peptoid solutions were transferred onto cells in 96-well plates, cells were incubated at 37°C for certain time periods. Then 20 µl of the CellTiter 96 Aqueous Non-Radioactive cell proliferation assay (Promega) reagent which contains a tetrazolium compound, [3-(4,5-dimethylthiazol-2-yl)-5-(3-carboxymethoxyphenyl)-2-(4-sulfophenyl)-2H-tetrazolium, inner salt; MTS(a)], was added to each well and cells were further incubated for 2 h to metabolize. The absorbance of formazan products were measured at 490 nm in a microplate reader (Molecular Devices). Percentage of cell viability = (A -A testblank)/(A control -A blank)×100, where A is the absorbance of the test well and A control the average absorbance of wells with cells not treated with peptoids. A testblank (media, MTS, and diluted peptoids) and A blank (media and MTS) were background absorbances measured in the absence of cells.
(§3) The activity and selectivity of these peptoids against cancer cells were evaluated in vitro. Their cytotoxicity was tested in three cancer cell lines, MCF-7 (human breast cancer), LNCaP (human prostate cancer), and OVCAR-3 (human ovarian cancer). To estimate the selectivity of these peptoids in vitro, hemolytic activities of some peptoids were cited from previously published work (Table 2 **column), and the MRC-5 cell line (human fibroblasts derived from fetal lung tissues) and primary dermal fibroblasts were also tested as normal cell controls. Briefly, cells were treated with peptoids diluted in culturing media for certain time periods, and then cell viability was measured via MTS assays.

[2] = test system: human breast cancer xenograft; experiment: Human breast cancer orthotopic xenograft mouse model, tumor growth; type: in vivo; settings: ~1 mg/kg (100 µl of 110 µM in PBS) injected into mammary fat pad three times a week, NSG mice, versus control peptoid 1 11mer-NLeu; caliper; P = 0.0014, t test
Description: 80,000 cells from a dissociated second generation metastatic breast cancer tumor were suspended in Medium 199 containing 25% Matrix Matrigel (Becton Dickinson 354248) and injected into the mammary fat pad of 4–8 week old NOD.Cg-Prkdc^scid Il2rg^tm1Wjl/SzJ (NSG) mice. After two weeks, 100 µl PBS containing 110 µM peptoid 1 or control peptide was injected into the mammary fat pad three times a week, roughly at a dose of 1 mg/kg. Tumor volumes were determined using direct caliper measurements following […] of treatment.
Human breast cancer cells were implanted in the mammary fat pad of immunocompromised mice.
Figure 5 Reduction of tumor volumes in a human breast cancer xenograft mouse model treated with peptoid 1. Cancer cells (8×10^4 cells) isolated from the second generation xenografts of human breast cancer tissues were implanted s.c. into the lower left mammary fat pads of 5–6-week-old immunocompromised NSG (NOD.Cg-Prkdc^scid Il2rg^tm1Wjl/SzJ) female mice. Two weeks after cell implantation, 100 µl of peptoid 1 and control peptoids were injected into xenografts at 110 µM in PBS (∼1 mg/kg) three times a week, up to 8 weeks. Tumor sizes were measured by a caliper. P = 0.0014, t test.

[3] = test system: MCF-7 (breast cancer); experiment: MTS cell viability assay, MCF-7; type: cell-based; settings: 72 h
Description: as §1, §2, §3

[4] = test system: Primary dermal fibroblast; experiment: MTS cell viability assay, primary dermal fibroblasts; type: cell-based; settings: 72 h
Description: as §1, §2, §3

Compound: C[C@@H](c1ccccc1)N(CC(N)=O)C(=O)CN(C(=O)CN(CCCCN)C(=O)CN(C(=O)CN(C(=O)CN(CCCCN)C(=O)CN(C(=O)CN(C(=O)CN(CCCCN)C(=O)CN(C(=O)CN(C(=O)CNCCCCN)[C@@H](C)c1ccccc1)[C@@H](C)c1ccccc1)[C@@H](C)c1ccccc1)[C@@H](C)c1ccccc1)[C@@H](C)c1ccccc1)[C@@H](C)c1ccccc1)[C@@H](C)c1ccccc1 [Peptoid 1, H-(NLys-Nspe-Nspe)4-NH2] (H-[Nlys][Nspe][Nspe][Nlys][Nspe][Nspe][Nlys][Nspe][Nspe][Nlys][Nspe][Nspe]-NH2)
- LC50 MRC-5 (fetal lung fibroblast) [1]: 8 µM
- tumor growth [2]: significantly inhibited the tumor growth
- LC50 MCF-7 (breast cancer) [3]: 5 µM
- LC50 Primary dermal fibroblast [4]: 8 µM

From paper PMC3938723, “Learning from Host-Defense Peptides: Cationic, Amphipathic Peptoids with Potent Anticancer Activity” (PLoS ONE, 2014)
